Test results taken from patent US9169205B2, “Pyrrolidine derivatives, pharmaceutical compositions and uses thereof” (Boehringer Ingelheim International GmbH, priority 2012, dated 2015).

biological target: human ACC2 (Homo sapiens (Human), UniProt O00763); assay: ACC2 assay (spectrophotometric 384 well assay, NADH-linked kinetic method); assay type: biochemical; conditions: hACC2 construct lacking 128 N-terminal amino acids, 25° C., 340 nm
Description: Spectrophotometric 384 Well Assay
Malonyl CoA formation by acetyl CoA carboxylases is stoichometrically linked to the consumption of ATP. ACC2 activity is measured in a NADH-linked kinetic method measuring ADP generated during the ACC reaction using a coupled lactate dehydrogenase/pyruvate kinase reaction.
The protein is then expressed in insect cells using a baculoviral expression system. Protein purification is performed by anion exchange.
All compounds are dissolved in dimethyl sulfoxide (DMSO) to a concentration of 10 mM.
The enzymatic reaction is then started by addition of a mixture of NADH, acetyl Coenzyme A (both 200 μM f.c.) and ATP (500 uM f.c.). The decrease of the optical density (slope S) is then determined at 25° C. at a wavelength of 340 nm over 15 minutes in a spectrophotometric reader.
Each assay microtiter plate contains wells with vehicle instead of compound as controls for the non-inhibited enzyme (100% CTL; ‘HIGH’) and wells without acetyl-CoA as controls for non-specific NADH degradation (0% CTL; ‘LOW’).

human ACC2, sequence (O00763 129-2458): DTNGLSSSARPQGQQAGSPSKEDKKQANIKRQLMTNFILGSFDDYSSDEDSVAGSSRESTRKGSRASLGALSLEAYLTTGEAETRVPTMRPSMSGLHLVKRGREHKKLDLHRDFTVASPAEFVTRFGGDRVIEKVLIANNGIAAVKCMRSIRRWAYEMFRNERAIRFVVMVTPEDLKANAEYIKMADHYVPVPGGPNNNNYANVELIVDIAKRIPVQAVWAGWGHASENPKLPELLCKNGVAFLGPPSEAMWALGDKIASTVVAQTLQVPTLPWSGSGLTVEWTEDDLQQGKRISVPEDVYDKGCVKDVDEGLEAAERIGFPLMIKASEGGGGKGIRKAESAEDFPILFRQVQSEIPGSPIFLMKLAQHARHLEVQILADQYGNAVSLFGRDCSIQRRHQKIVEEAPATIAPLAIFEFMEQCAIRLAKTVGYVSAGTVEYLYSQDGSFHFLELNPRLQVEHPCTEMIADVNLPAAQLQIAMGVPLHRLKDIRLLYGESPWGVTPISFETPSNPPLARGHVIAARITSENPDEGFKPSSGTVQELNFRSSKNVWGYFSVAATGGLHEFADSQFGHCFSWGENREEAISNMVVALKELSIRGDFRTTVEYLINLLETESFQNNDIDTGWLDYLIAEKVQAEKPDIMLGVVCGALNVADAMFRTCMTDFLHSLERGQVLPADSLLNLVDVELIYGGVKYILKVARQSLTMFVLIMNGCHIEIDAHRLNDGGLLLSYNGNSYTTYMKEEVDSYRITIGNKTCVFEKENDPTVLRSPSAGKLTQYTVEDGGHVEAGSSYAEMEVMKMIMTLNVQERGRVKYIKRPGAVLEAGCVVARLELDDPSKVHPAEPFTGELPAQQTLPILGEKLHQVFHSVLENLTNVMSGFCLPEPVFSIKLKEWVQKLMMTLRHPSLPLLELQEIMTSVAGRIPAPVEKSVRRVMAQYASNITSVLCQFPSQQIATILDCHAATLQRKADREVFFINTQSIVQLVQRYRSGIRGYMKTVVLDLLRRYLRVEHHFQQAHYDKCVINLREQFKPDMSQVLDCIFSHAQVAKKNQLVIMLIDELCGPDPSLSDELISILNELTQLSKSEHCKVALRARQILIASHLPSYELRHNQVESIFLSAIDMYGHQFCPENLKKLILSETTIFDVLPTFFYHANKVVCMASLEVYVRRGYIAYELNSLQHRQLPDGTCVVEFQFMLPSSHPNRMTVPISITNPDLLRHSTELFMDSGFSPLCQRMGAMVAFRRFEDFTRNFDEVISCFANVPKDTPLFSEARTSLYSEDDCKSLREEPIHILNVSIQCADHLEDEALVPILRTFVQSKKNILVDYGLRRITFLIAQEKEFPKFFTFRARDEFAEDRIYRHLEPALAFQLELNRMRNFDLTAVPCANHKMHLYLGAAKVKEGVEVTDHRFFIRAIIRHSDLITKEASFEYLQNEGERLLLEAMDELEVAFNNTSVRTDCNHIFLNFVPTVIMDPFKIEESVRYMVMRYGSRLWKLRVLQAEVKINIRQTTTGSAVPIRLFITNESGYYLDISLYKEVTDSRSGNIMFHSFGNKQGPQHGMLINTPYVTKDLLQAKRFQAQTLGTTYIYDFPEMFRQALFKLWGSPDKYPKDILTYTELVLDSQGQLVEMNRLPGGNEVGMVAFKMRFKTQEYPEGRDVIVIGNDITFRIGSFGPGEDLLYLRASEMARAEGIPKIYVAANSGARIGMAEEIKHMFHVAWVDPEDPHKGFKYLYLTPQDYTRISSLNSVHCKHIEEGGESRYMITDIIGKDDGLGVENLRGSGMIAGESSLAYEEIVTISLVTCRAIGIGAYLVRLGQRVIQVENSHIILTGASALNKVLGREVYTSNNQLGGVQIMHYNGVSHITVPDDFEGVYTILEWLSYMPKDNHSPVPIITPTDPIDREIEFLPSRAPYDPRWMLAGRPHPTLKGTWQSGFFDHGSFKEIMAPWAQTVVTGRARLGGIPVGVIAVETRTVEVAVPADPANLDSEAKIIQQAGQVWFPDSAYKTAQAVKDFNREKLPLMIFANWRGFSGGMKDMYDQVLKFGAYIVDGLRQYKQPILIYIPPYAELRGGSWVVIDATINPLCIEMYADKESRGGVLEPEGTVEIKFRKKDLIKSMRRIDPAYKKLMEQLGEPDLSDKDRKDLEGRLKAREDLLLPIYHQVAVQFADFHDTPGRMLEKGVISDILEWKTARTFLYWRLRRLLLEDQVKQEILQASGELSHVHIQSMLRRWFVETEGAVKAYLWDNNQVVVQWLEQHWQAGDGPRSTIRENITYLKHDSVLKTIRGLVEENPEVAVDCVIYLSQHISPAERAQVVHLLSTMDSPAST

Row | SMILES | IC50 [nM]
1 | CC(=O)N[C@@H](C)c1ccc(OC2CCN(c3ccc4c(c3)OC(F)(F)O4)C2)cc1 (some centres unmarked) [Example 1.80] | 574
2 | CC(=O)N[C@@H](C)c1ccc(OC2CCN(c3ccc(OCC4(C(F)(F)F)CC4)cc3)C2)cc1 (some centres unmarked) [Example 1.81] | 804
3 | CC(=O)N[C@@H](C)c1ccc(OC2CCN(c3cc4c(cc3C#N)OCCO4)C2)cc1 (some centres unmarked) [Example 1.82] | 1480
4 | CC(=O)N[C@@H](C)c1ccc(OC2CCN(c3ccc4c(c3C)OCCO4)C2)cc1 (some centres unmarked) [Example 1.83] | 350
5 | CC(=O)N[C@@H](C)c1ccc(OC2CCN(c3ccc(OCC4CC4)cc3C)C2)cc1 (some centres unmarked) [Example 1.84] | 69
6 | CC(=O)N[C@@H](C)c1ccc(OC2CCN(c3ccc(OC(C)C)cc3C)C2)cc1 (some centres unmarked) [Example 1.85] | 226
7 | CCCOc1ccc(N2CCC(Oc3ccc([C@H](C)NC(C)=O)cc3)C2)c(C)c1 (some centres unmarked) [Example 1.86] | 65
8 | CCOc1ccc(N2CCC(Oc3ccc([C@H](C)NC(C)=O)cc3)C2)c(C)c1 (some centres unmarked) [Example 1.87] | 108
9 | CC(=O)N[C@@H](C)c1ccc(OC2CCN(c3ccc(OCCCF)cc3C)C2)cc1 (some centres unmarked) [Example 1.88] | 102
10 | CC(=O)N[C@@H](C)c1ccc(OC2CCN(c3ccc(OCC(C)(C)F)cc3)C2)cc1 (some centres unmarked) [Example 1.89] | 224
11 | CC(=O)N[C@@H](C)c1ccc(OC2CCN(c3ccc(OCCC(F)F)cc3)C2)cc1 (some centres unmarked) [Example 1.90] | 40
12 | COc1cc(F)c(N2CCC(Oc3ccc([C@H](C)NC(C)=O)cc3)C2)cc1F (some centres unmarked) [Example 1.92] | 384
13 | COc1ccc(N2CCC(Oc3ccc([C@H](C)NC(C)=O)cc3)C2)cc1F (some centres unmarked) [Example 1.93] | 601
14 | CC(=O)N[C@@H](C)c1ccc(OC2CCN(c3cc(C(F)F)ccc3F)C2)cc1 (some centres unmarked) [Example 1.94] | 221
15 | CC(=O)N[C@@H](C)c1ccc(OC2CCN(c3cccc(C(F)F)c3)C2)cc1 (some centres unmarked) [Example 1.95] | 166
16 | CC(=O)N[C@@H](C)c1ccc(OC2CCN(c3ccc(OCC4CC(F)(F)C4)cc3)C2)cc1 (some centres unmarked) [Example 1.96] | 61
17 | CC(=O)N[C@@H](C)c1ccc(OC2CCN(c3ccc(O[C@H]4CCOC4)cc3)C2)cc1 (some centres unmarked) [Example 1.97] | 244
18 | CC(=O)N[C@@H](C)c1ccc(OC2CCN(c3ccc(OCC4CC4(F)F)c(F)c3)C2)cc1 (some centres unmarked) [Example 1.98] | 64
19 | CCOc1ccc(N2CCC(Oc3ccc([C@H](C)NC(C)=O)cc3)C2)cc1F (some centres unmarked) [Example 1.99] | 383
20 | CC(=O)N[C@@H](C)c1ccc(OC2CCN(c3ccc(OCC4CC4)c(F)c3)C2)cc1 (some centres unmarked) [Example 1.100] | 87
21 | CC(=O)N[C@@H](C)c1ccc(OC2CCN(c3ccc4c(c3)C(C)(C)CO4)C2)cc1 (some centres unmarked) [Example 1.101] | 269
22 | CC(=O)N[C@@H](C)c1ccc(OC2CCN(c3ccc(OCCC(F)F)cc3)C2)nc1 (some centres unmarked) [Example 1.102] | 212
23 | CC(=O)N[C@@H](C)c1ccc(OC2CCN(c3ccc(OC4CC4)cc3C)C2)nc1 (some centres unmarked) [Example 1.103] | 231
24 | CC(=O)N[C@@H](C)c1ccc(O[C@H]2CCN(c3ccc(OC4CC4)cc3C)C2)cc1 [Example 1.104] | 363
25 | C[C@H](NC(=O)C(F)F)c1ccc(O[C@@H]2CCN(c3ccc(OCC4CC4)cc3)C2)cc1 [Example 2.25] | 38

Second part, the compound after the results:

Row | IC50 [nM] | SMILES
26 | 40 | CC(=O)Nc1nc(C)c(C(=O)N[C@@H](C)c2ccc(OC3CCN(c4ccc(OCC5CC5)cc4)C3)cc2)s1 (some centres unmarked) [Example 2.1]
27 | 671 | C[C@H](NC(=O)C1CCC(=O)N1)c1ccc(O[C@@H]2CCN(c3ccc(OCC4CC4)cc3)C2)cc1 (some centres unmarked) [Example 2.2]
28 | 399 | C[C@H](NC(=O)Cc1cnccn1)c1ccc(O[C@@H]2CCN(c3ccc(OCC4CC4)cc3)C2)cc1 [Example 2.3]
29 | 517 | CC(=O)Nc1cccc(C(=O)N[C@@H](C)c2ccc(O[C@@H]3CCN(c4ccc(OCC5CC5)cc4)C3)cc2)c1C [Example 2.4]
30 | 800 | COc1ccccc1C(=O)N[C@@H](C)c1ccc(O[C@@H]2CCN(c3ccc(OCC4CC4)cc3)C2)cc1 [Example 2.5]
31 | 705 | CC(=O)N[C@H]1C[C@@H](C(=O)N[C@@H](C)c2ccc(O[C@@H]3CCN(c4ccc(OCC5CC5)cc4)C3)cc2)NC1=O [Example 2.6]
32 | 121 | C[C@H](NC(=O)Cc1cncnc1)c1ccc(O[C@@H]2CCN(c3ccc(OCC4CC4)cc3)C2)cc1 [Example 2.7]
33 | 330 | Cc1cc(C(=O)N[C@@H](C)c2ccc(O[C@@H]3CCN(c4ccc(OCC5CC5)cc4)C3)cc2)[nH]n1 [Example 2.8]
34 | 138 | Cc1cc(CC(=O)N[C@@H](C)c2ccc(O[C@@H]3CCN(c4ccc(OCC5CC5)cc4)C3)cc2)on1 [Example 2.9]
35 | 79 | C[C@H](NC(=O)C1(C)CC1)c1ccc(O[C@@H]2CCN(c3ccc(OCC4CC4)cc3)C2)cc1 [Example 2.10]
36 | 132 | C[C@H](NC(=O)c1cnn(C)c1)c1ccc(O[C@@H]2CCN(c3ccc(OCC4CC4)cc3)C2)cc1 [Example 2.11]
37 | 397 | C[C@H](NC(=O)Cc1cc[nH]c1)c1ccc(O[C@@H]2CCN(c3ccc(OCC4CC4)cc3)C2)cc1 [Example 2.12]
38 | 359 | C[C@H](NC(=O)c1cc[nH]n1)c1ccc(O[C@@H]2CCN(c3ccc(OCC4CC4)cc3)C2)cc1 [Example 2.13]
39 | 705 | CNC(=O)c1cccc(C(=O)N[C@@H](C)c2ccc(O[C@@H]3CCN(c4ccc(OCC5CC5)cc4)C3)cc2)n1 [Example 2.14]
40 | 315 | Cc1cc(C(=O)N[C@@H](C)c2ccc(O[C@@H]3CCN(c4ccc(OCC5CC5)cc4)C3)cc2)no1 [Example 2.15]
41 | 864 | C[C@H](NC(=O)C1(C(=O)N(C)C)CC1)c1ccc(O[C@@H]2CCN(c3ccc(OCC4CC4)cc3)C2)cc1 [Example 2.16]
42 | 346 | COc1cc(C(=O)N[C@@H](C)c2ccc(O[C@@H]3CCN(c4ccc(OCC5CC5)cc4)C3)cc2)on1 [Example 2.17]
43 | 551 | Cc1ncncc1C(=O)N[C@@H](C)c1ccc(O[C@@H]2CCN(c3ccc(OCC4CC4)cc3)C2)cc1 [Example 2.18]
44 | 124 | CC(C)Oc1ccc(N2CC[C@@H](Oc3ccc([C@H](C)NC(=O)C(F)(F)F)cc3)C2)cc1 [Example 2.19]
45 | 774 | CCC(=O)N[C@@H](C)c1ccc(O[C@@H]2CCN(c3ccc(OC(C)C)cc3)C2)cc1 [Example 2.20]
46 | 45 | Cc1oncc1C(=O)N[C@@H](C)c1ccc(O[C@@H]2CCN(c3ccc(OCC4CC4)cc3)C2)cc1 [Example 2.21]
47 | 30 | C[C@H](NC(=O)c1cnco1)c1ccc(O[C@@H]2CCN(c3ccc(OCC4CC4)cc3)C2)cc1 [Example 2.22]
48 | 56 | CC(C#N)C(=O)N[C@@H](C)c1ccc(O[C@@H]2CCN(c3ccc(OCC4CC4)cc3)C2)cc1 (some centres unmarked) [Example 2.23]
49 | 40 | CCC(=O)N[C@@H](C)c1ccc(O[C@@H]2CCN(c3ccc(OCC4CC4)cc3)C2)cc1 [Example 2.24]
50 | 47 | Cc1[nH]ncc1C(=O)N[C@@H](C)c1ccc(O[C@@H]2CCN(c3ccc(OCC4CC4)cc3)C2)cc1 [Example 2.26]
51 | 107 | C[C@H](NC(=O)c1cnc(N)o1)c1ccc(O[C@@H]2CCN(c3ccc(OCC4CC4)cc3)C2)cc1 [Example 2.27]
52 | 105 | C[C@H](NC(=O)c1ccns1)c1ccc(O[C@@H]2CCN(c3ccc(OCC4CC4)cc3)C2)cc1 [Example 2.28]
53 | 400 | C[C@H](NC(=O)CO)c1ccc(O[C@@H]2CCN(c3ccc(OCC4CC4)cc3)C2)cc1 [Example 2.29]
